ChEMBL document CHEMBL4422644, “Synthesis and evaluation of α-aminoacyl amides as antitubercular agents effective on drug resistant tuberculosis” (Eur J Med Chem, 2019)
Converted amounts (≈) assume the structure as drawn.

Assays:
[1] = tested on: Mycobacterium tuberculosis; assay: Antitubercular activity against Mycobacterium tuberculosis H37Rv after 6 days by alamar blue assay; format: functional; settings: 144 h
[2] = tested on: Mycobacterium tuberculosis; assay: Antitubercular activity against Mycobacterium tuberculosis H37Rv after 7 days by alamar blue assay; format: functional; settings: 168 h
[3] = tested on: CHO-K1; assay: Cytotoxicity against CHOK1 cells after 24 hrs by MTT assay; format: cell-based; settings: Cricetulus griseus, CHO-K1, 24 h
[4] = Selectivity index, ratio of IC50 for CHOK1 cells to MIC for Mycobacterium tuberculosis H37Rv; format: toxicity; settings: hamster, read-out: Selectivity Index
[5] = tested on: A549; assay: Cytotoxicity against human A549 cells after 24 hrs by MTT assay; format: functional, cell-based; settings: A549, 24 h
[6] = tested on: DU-145; assay: Cytotoxicity against human DU145 cells after 24 hrs by MTT assay; format: functional, cell-based; settings: DU-145, 24 h
[7] = tested on: HeLa; assay: Cytotoxicity against human HeLa cells after 24 hrs by MTT assay; format: functional, cell-based
[8] = tested on: HepG2; assay: Cytotoxicity against human HepG2 cells after 24 hrs by MTT assay; format: functional, cell-based; settings: HepG2, 24 h
[9] = tested on: MCF7; assay: Cytotoxicity against human MCF7 cells after 24 hrs by MTT assay; format: functional, cell-based; settings: MCF7, 24 h
[10] = Cytotoxicity against […] B16 cells after 24 hrs by MTT assay; format: functional, cell-based; settings: B16, 24 h
[11] = Cytotoxicity against HEK cells after 24 hrs by MTT assay; format: cell-based; settings: Homo sapiens, HEK293, 24 h
[12] = tested on: Escherichia coli; assay: Antibacterial activity against Escherichia coli ATCC 25922 after 24 hrs; format: functional; settings: ATCC 25922, 24 h
[13] = tested on: Staphylococcus aureus; assay: Antibacterial activity against Staphylococcus aureus ATCC 29213 after 24 hrs; format: functional; settings: ATCC 29213, 24 h
[14] = tested on: Pseudomonas aeruginosa; assay: Antibacterial activity against Pseudomonas aeruginosa ATCC 27853 after 24 hrs; format: functional; settings: ATCC 27853, 24 h
[15] = tested on: Klebsiella pneumoniae; assay: Antibacterial activity against Klebsiella pneumoniae ATCC BAA-1705 after 24 hrs; format: functional; settings: ATCC BAA-1705, 24 h
[16] = tested on: Acinetobacter baumannii; assay: Antibacterial activity against Acinetobacter baumannii ATCC BAA-1605 after 24 hrs; format: functional; settings: ATCC BAA-1605, 24 h
[17] = tested on: Mycolicibacterium fortuitum; assay: Antibacterial activity against Mycobacterium fortuitum after 7 days by alamar blue assay; format: functional; settings: 168 h
[18] = tested on: Mycobacteroides chelonae; assay: Antibacterial activity against Mycobacterium chelonae after 7 days by alamar blue assay; format: functional; settings: 168 h
[19] = tested on: Mycobacteroides abscessus; assay: Antibacterial activity against Mycobacterium abscessus after 7 days by alamar blue assay; format: functional; settings: 168 h
[20] = Selectivity index, ratio of IC50 for HEK cells to MIC for Mycobacterium tuberculosis H37Rv; format: toxicity; settings: human, read-out: Selectivity Index
[21] = tested on: Mycobacterium tuberculosis; assay: Antitubercular activity against Mycobacterium tuberculosis H37Rv assessed as microbial killing at 4 fold MIC incubated for 6 days by MPN assay; format: functional, organism-based

SMILES | MIC [2] | IC50 [3] | selectivity ratio [4] | IC50 [5] | IC50 [6] | IC50 [7] | IC50 [8] | IC50 [9] | IC50 [10] | IC50 [11] | MIC [12] | MIC [13] | MIC [14] | MIC [15] | MIC [16] | MIC [17] | MIC [18] | MIC [19] | selectivity ratio [20] | further results
Cc1nc(C)c(C(=O)N(c2cccc(C)c2C)C(C(=O)NC2CCCCC2)c2ccccc2)s1 (stereo not given) | 12.5 µM (≈ 5.95 µg/mL) | 27.9 µM | 2.1 | 12.5 µM | 12.6 µM | 8.29 µM | 9.34 µM | 11 µM | 15.5 µM | 34.4 µM | > 50 µM | > 50 µM | > 50 µM | > 50 µM | > 50 µM | > 50 µM | > 50 µM | > 50 µM | – | MIC [1]: 12.5 µM (≈ 5.95 µg/mL)
Cc1nc(C)c(C(=O)N(c2cccc(C)c2C)C(C(=O)NC2CCCCC2)c2ccncc2)s1 (stereo not given) | 1.56 µM (≈ 0.744 µg/mL) | 71.8 µM | 45.5 | 6.6 µM | 10.9 µM | 10.5 µM | 14.5 µM | 4.49 µM | 11.6 µM | 48.9 µM | > 50 µM | > 50 µM | > 50 µM | > 50 µM | > 50 µM | > 50 µM | > 50 µM | > 50 µM | 31.4 | –
Cc1ccc(N(C(=O)c2sc(C)nc2C)C(C(=O)NC2CCCCC2)c2cccnc2)cc1 (stereo not given) | 3.12 µM (≈ 1.44 µg/mL) | 161 µM | 51.6 | 11.7 µM | 16.6 µM | 9.11 µM | 6.75 µM | 5.99 µM | 17.7 µM | 59.1 µM | > 50 µM | > 50 µM | > 50 µM | > 50 µM | > 50 µM | > 50 µM | > 50 µM | > 50 µM | 18.9 | –
Cc1ccc(N(C(=O)c2ccc[nH]2)C(C(=O)NC2CCCCC2)c2ccccc2)c(C)c1 (stereo not given) | 6.25 µM (≈ 2.68 µg/mL) | 68.2 µM | 10.8 | 15.5 µM | 9.3 µM | 10.9 µM | 13.5 µM | 15.5 µM | 32.5 µM | 33.2 µM | > 50 µM | > 50 µM | > 50 µM | > 50 µM | > 50 µM | > 50 µM | > 50 µM | > 50 µM | – | –
Cc1ccc(N(C(=O)c2sc(C)nc2C)C(C(=O)NC2CCCCC2)c2ccccc2)c(C)c1 (stereo not given) | 12.5 µM (≈ 5.95 µg/mL) | 43 µM | 3.4 | 8.63 µM | 11.4 µM | 9.43 µM | 12.6 µM | 11.7 µM | 29.8 µM | 47 µM | > 50 µM | > 50 µM | > 50 µM | > 50 µM | > 50 µM | > 50 µM | > 50 µM | > 50 µM | – | –
Cc1nc(C)c(C(=O)N(c2cccc(C)c2C)C(C(=O)NCc2ccccc2)c2ccccc2)s1 (stereo not given) | 6.12 µM (≈ 2.96 µg/mL) | 30.2 µM | 4.9 | 12.7 µM | 12.6 µM | 11.7 µM | 8.13 µM | 5.62 µM | 12.4 µM | 31.2 µM | > 50 µM | > 50 µM | > 50 µM | > 50 µM | > 50 µM | > 50 µM | > 50 µM | > 50 µM | – | –
Cc1nc(C)c(C(=O)N(c2cccc(C)c2C)C(C(=O)NC2CCCCC2)c2cccnc2)s1 (stereo not given) | 0.78 µM (≈ 0.372 µg/mL) | 107 µM | 136 | 8.62 µM | 10 µM | 9.58 µM | 14 µM | 6.39 µM | 13.4 µM | 81.1 µM | > 50 µM | > 50 µM | > 50 µM | > 50 µM | > 50 µM | > 50 µM | > 50 µM | > 50 µM | 104 | Activity [21]: Dose-dependent effect
Cc1ccc(N(C(=O)c2sc(C)nc2C)C(C(=O)NC2CCCCC2)c2ccc(Cl)cc2)cc1 (stereo not given) | 0.78 µM (≈ 0.387 µg/mL) | 7.37 µM | 8.9 | 10.3 µM | 9 µM | 11.9 µM | 5.33 µM | 3.19 µM | 23 µM | 11.8 µM | > 50 µM | > 50 µM | > 50 µM | > 50 µM | > 50 µM | > 50 µM | > 50 µM | > 50 µM | – | –
Cc1ccc(N(C(=O)c2c(C)noc2C)C(C(=O)NC2CCCCC2)c2ccncc2)cc1 (stereo not given) | 6.12 µM (≈ 2.73 µg/mL) | 166 µM | 26.6 | 11 µM | 9.53 µM | 15.8 µM | 8.48 µM | 4.24 µM | 28.6 µM | 71.3 µM | > 50 µM | > 50 µM | > 50 µM | > 50 µM | > 50 µM | > 50 µM | > 50 µM | > 50 µM | – | –
Cc1cccc(N(C(=O)c2c(C)noc2C)C(C(=O)NC2CCCCC2)c2ccccc2)c1C (stereo not given) | 3.12 µM (≈ 1.43 µg/mL) | 47.5 µM | 15.1 | 8.49 µM | 9.95 µM | 8.67 µM | 10.4 µM | 3.05 µM | 27.7 µM | 97.6 µM | > 50 µM | > 50 µM | > 50 µM | > 50 µM | > 50 µM | > 50 µM | > 50 µM | > 50 µM | 31.3 | –
Cc1cccc(N(C(=O)C2CCCCN2)C(C(=O)NC2CCCCC2)c2ccccc2)c1C (stereo not given) | 3.12 µM (≈ 1.4 µg/mL) | 54.4 µM | 4.3 | 9.74 µM | 8.82 µM | 10.3 µM | 10.6 µM | 3.31 µM | 16.4 µM | 174 µM | > 50 µM | > 50 µM | > 50 µM | > 50 µM | > 50 µM | > 50 µM | > 50 µM | > 50 µM | 55.7 | –
